Data reported in US20070293666A1, “Optical Filter and Its Applications, and Porphyrin Compound Used in Optical Filter” (Mitsui Chemicals, Inc., priority 2004, published 2007).

How the values were obtained:
Type in all cases: physicochemical
[1] = Absorption spectrum in chloroform (maximum absorption wavelength, gram absorption coefficient, 550/525 nm coefficient ratio); conditions: for εg (gram absorption coefficient) / λmax: chloroform solution; for Ratio of Absorption Coefficient at 525 nm and 550 nm: coefficient at 550 nm to coefficient at 525 nm
Experimental: (§1) Compounds represented by the compound Nos. 1-1, 1-2, 1-3, 1-4 and 1-7 (Table 1-1) were synthesized in the same manner as in Examples 1-1 and 1-2. With respect to compounds synthesized in Example 1-2 and Synthesis Example 1-1 along with these compounds, the maximum absorption wavelength (λmax), the gram absorption coefficient (εg) and solubility were measured.
(§2) λmax and εg are values in the chloroform solution, while the solubility is weight % based on acetone.
With respect to the compounds represented by the compound Nos. 1-2, 1-3, 1-6 and 1-7 synthesized in Examples 1-2 and 1-3 (corresponding to compounds (3-B), (3-C), (3-E) and (3-F) respectively) along with the obtained compound (3-A), the maximum absorption wavelength and the ratio of the absorption coefficient at a wavelength of 550 nm to the absorption coefficient at a wavelength of 525 nm, which were measured in a chloroform solvent, are shown in Table 3-1. [drawing 26] [drawing 27] [drawing 28] [drawing 29]

Solubility in acetone = experiment: Solubility in acetone; design: key: ∘: completely dissolved; x: not completely dissolved; conditions: for Solubility 0.1%: 0.1 weight % based on acetone; for Solubility 0.2%: 0.2 weight % based on acetone; for Solubility 1.0%: 1.0 weight % based on acetone
Experimental: as §1, §2

[2] = Light transmittance of optical filter (dye-containing acrylic adhesive sheet, 1000 ppm dye); conditions: dye 1000 (wt)ppm in acrylic adhesive, 25 μm
Experimental: When the compound (3-A) was dispersed and dissolved in a solvent of ethyl acetate and toluene (weight ratio 50:50) and dried, a dye-containing diluting agent for an acrylic adhesive was prepared such that the dye concentration in the resin was 1000 (wt)ppm. Subsequently, the acrylic adhesive (a copolymer of butyl acrylate and acrylic acid (Product name: DBBOND, manufactured by Diabond Industry Co., Ltd.)) and a dye-containing diluting agent were mixed (weight ratio 80:20), and continuously applied on a mold releasing layer of a mold releasing film comprising a polyethylene terephthalate film and a silicone mold releasing layer according to a bar coating method, and the resulting material was dried. Then, the other mold releasing film was attached to the coating surface to prepare a dye-containing adhesive sheet having a thickness of 25 μm with mold releasing films having different mold releasing forces at both sides.
The mold releasing film on one side of the prepared adhesive sheet was peeled away and the resulting sheet was attached to a transparent acrylic resin (manufactured by Mitsubishi Rayon Co., Ltd., Acrylite, thickness: 2 mm), while the mold releasing film on the other side thereof was further peeled away and an ultraviolet blocking film (manufactured by Teijin Co., Ltd., HB Film, thickness: 75 μm) was attached to prepare an optical filter.
With respect to the obtained optical filter, the light transmittance in a wavelength of from 300 to 800 nm was measured by using a spectrophotometer (Product name: U-3400, manufactured by Hitachi, Ltd.) in accordance with JIS R3106. A percentage of light transmittance at a wavelength of 550 nm to light transmittance at a wavelength of 525 nm was obtained.

[3] = Light resistance test / artificial sunlight irradiation test of optical filter; conditions: visible light 380 to 780 nm; for Absorption Retention after Light resistance test for 250 hours: 50 mW/cm^2, 250 hours, 30±10° C., humidity 50±20%
Experimental: To evaluate light resistance of the dye, a sample prepared in the same method as in evaluation of heat resistance is used. The absorption retention rate represented by the above equation (1) is measured in the same manner as in heat resistance. However, in this case, the obtained sample is not kept under the environment of 80° C., but the above visible light ray is irradiated on a side of the ultraviolet blocking film of the sample in a room at a temperature of 30±10° C., a humidity of 50±20% for a predetermined time. Tmax,1 represents light transmittance in a maximum absorption wavelength after the above visible light ray is irradiated for a predetermined time. When there are a plurality of absorption maxima, Tmax,0 is light transmittance at a maximum absorption wavelength showing the highest absorption coefficient. Tmax,1 represents light transmittance at the same wavelength as that in Tmax,0 or at a maximum absorption wavelength nearest to the wavelength in Tmax,0.
With respect to the optical filters obtained from the compounds (3-A) to (3-F), environmental accelerated tests were carried out by artificial sunlight irradiation using a solar simulator (manufactured by Ushio Inc.). A visible light ray in a wavelength of from 380 to 780 nm was irradiated on the ultraviolet blocking film of the prepared optical filter at 50 mW/cm^2 for 250 hours in a room at a temperature of 30±10° C. and a humidity of 50±20%. At this time, an absorption retention rate represented by the above equation (1) was obtained.
(§3) With respect to the optical filters obtained from the compounds (3-A) and (3-B), environmental accelerated tests of high temperature, high-temperature/high-humidity and artificial sunlight irradiation were carried out. In the test, a constant temperature chamber at 80° C. (DN-61, manufactured by Yamato Scientific Co., Ltd.), a constant temperature and humidity chamber at 60° C. and 90% RH (Product name, FX2200, manufactured by Kusumoto Chemicals, Ltd.) and a solar simulator (manufactured by Ushio Inc.) were respectively used. A visible light ray in a wavelength of from 380 to 780 nm was irradiated on a surface of the ultraviolet blocking film of the above optical filter at 50 mW/cm^2 for a predetermined time in a room at a temperature of 30±10° C. and a humidity of 50±20%.
(§4) The above optical filters were kept under each environmental condition for 500 hours and 1000 hours, and light transmittance of the optical filter was measured by using the spectrophotometer after 500 hours and 1000 hours. An absorption retention rate in a maximum absorption wavelength after each environmental accelerated test was obtained from the above equation (2).

[4] = High temperature test of optical filter; conditions: 80° C.
Experimental: A dye-containing diluting agent was prepared such that the dye concentration in the resin was 1000 (wt)ppm when the dye was dispersed and dissolved in a solvent and dried. Subsequently, an acrylic adhesive (a copolymer of butyl acrylate and acrylic acid (Product name: DBBOND, manufactured by Diabond Industry Co., Ltd.) and the dye-containing diluting agent are mixed (weight ratio 80:20), and continuously applied on a mold releasing layer of a mold releasing film comprising a polyethylene terephthalate film and a silicone mold releasing layer according to the bar coating method, and the resulting material was dried. Due to this, an acrylic adhesive containing the dye having a film thickness of 25 μm was prepared. The prepared adhesive was attached to a transparent acrylic resin (manufactured by Mitsubishi Rayon Co., Ltd., Acrylite, thickness: 2 mm), and the mold releasing film of the adhesive was peeled away and an ultraviolet blocking film (manufactured by Teijin Co., Ltd., HB Film, thickness: 75 μm) was attached to give the sample for evaluation. […]
The above optical filters were kept under each environmental condition for 500 hours and 1000 hours, and light transmittance of the optical filter was measured by using the spectrophotometer after 500 hours and 1000 hours. […]

[5] = High temperature/high humidity test of optical filter; conditions: 60° C. and 90% RH
Experimental: as §3, §4

Maximum Absorption Wavelength ([1]; in chloroform) [nm] | gram absorption coefficient ([1]; in chloroform) | εg (gram absorption coefficient) [1] | λmax [1] [nm] | Maximum Absorption Wavelength ([1]; chloroform solvent) [nm] | Ratio of Absorption Coefficient at 525 nm and 550 nm ([1]; chloroform solvent) | Solubility 0.1% (Solubility in acetone) | Solubility 0.2% (Solubility in acetone) | Solubility 1.0% (Solubility in acetone) | Light Transmittance at 525 nm [2] [%] | Light Transmittance at 550 nm [2] [%] | T@550/T@525 Light Transmittance Ratio [2] [%] | Absorption Retention after Light resistance test for 250 hours [3] [%] | Absorption retention rate, Artificial sunlight irradiation test, after 500 hours ([3]; 50 mW/cm^2, 500 hours) [%] | Absorption retention rate, Artificial sunlight irradiation test, After 1000 hours ([3]; 50 mW/cm^2, 1000 hours) [%] | Absorption retention rate, High temperature test, after 500 hours ([4]; 500 hours) [%] | Absorption retention rate, High temperature test, After 1000 hours ([4]; 1000 hours) [%] | Absorption retention rate, High temperature/High humidity test, after 500 hours ([5]; 500 hours) [%] | Absorption retention rate, High temperature/High humidity test, After 1000 hours ([5]; 1000 hours) [%] | Compound
567 | 113,000 |  |  |  |  |  |  |  |  |  |  |  |  |  |  |  |  |  | CCCCCCCCCCOc1ccc(-c2c3nc(c(-c4ccc(OCCCCCCCCCC)cc4)c4[nH]c(c(-c5ccc(OCCCCCCCCCC)cc5)c5nc(c(-c6ccc(OCCCCCCCCCC)cc6)c6[nH]c2c2c7cccc8cccc(c87)c62)c2c6cccc7cccc(c76)c52)c2c5cccc6cccc(c65)c42)c2c4cccc5cccc(c54)c32)cc1 [1-A]
536 | 135,000 | 135,000 | 536 | 536 | 1.2 | ∘ | ∘ | ∘ | 61.7 | 57.5 | 93 | 97 |  |  |  |  |  |  | CCCCCCCCCCOc1ccc(C2=c3nc(c4c5cccc6cccc(c3=4)c65)C(c3ccc(OCCCCCCCCCC)cc3)=c3c4c(c5[n]3[Ni][n]3c2c2c(c3C(c3ccc(OCCCCCCCCCC)cc3)=c3nc(c6c7cccc8cccc(c3=6)c87)C=5c3ccc(OCCCCCCCCCC)cc3)-c3cccc5cccc-2c35)-c2cccc3cccc-4c23)cc1 [1-6]
 |  | 162,000 | 553 |  |  | ∘ | ∘ | x |  |  |  |  |  |  |  |  |  |  | CCCCOc1ccc(C2=c3nc(c4c5cccc6cccc(c3=4)c65)C(c3ccc(OCCCC)cc3)=c3c4c(c5[n]3[Cu][n]3c2c2c(c3C(c3ccc(OCCCC)cc3)=c3nc(c6c7cccc8cccc(c3=6)c87)C=5c3ccc(OCCCC)cc3)-c3cccc5cccc-2c35)-c2cccc3cccc-4c23)cc1 [1-1]
 |  |  |  | 546 | 2.2 |  |  |  | 59.7 | 38.1 | 64 | 92 |  |  |  |  |  |  | CC(C)(C)c1ccc(C2=c3nc(c4c5cccc6cccc(c3=4)c65)C(c3ccc(C(C)(C)C)cc3)=c3c4c(c5[n]3[Cu][n]3c2c2c(c3C(c3ccc(C(C)(C)C)cc3)=c3nc(c6c7cccc8cccc(c3=6)c87)C=5c3ccc(C(C)(C)C)cc3)-c3cccc5cccc-2c35)-c2cccc3cccc-4c23)cc1 [3-D]
563 | 110,000 |  |  |  |  |  |  |  |  |  |  |  |  |  |  |  |  |  | c1coc(-c2c3nc(c(-c4ccco4)c4[nH]c(c(-c5ccco5)c5nc(c(-c6ccco6)c6[nH]c2c2c7cccc8cccc(c87)c62)c2c6cccc7cccc(c76)c52)c2c5cccc6cccc(c65)c42)c2c4cccc5cccc(c54)c32)c1 [2-A]
 |  | 154,000 | 553 | 553 | 2.5 | ∘ | ∘ | ∘ | 62.6 | 37.2 | 59 | 95 | 95 | 93 | 100 | 100 | 91 | 90 | CCCCCOc1ccc(C2=c3nc(c4c5cccc6cccc(c3=4)c65)C(c3ccc(OCCCCC)cc3)=c3c4c(c5[n]3[Cu][n]3c2c2c(c3C(c3ccc(OCCCCC)cc3)=c3nc(c6c7cccc8cccc(c3=6)c87)C=5c3ccc(OCCCCC)cc3)-c3cccc5cccc-2c35)-c2cccc3cccc-4c23)cc1 [1-2]
 |  | 122,000 | 552 | 552 | 1.4 | ∘ | ∘ | ∘ | 72.0 | 66.6 | 93 | 94 |  |  |  |  |  |  | CCCCCCCCCCOc1ccc(C2=c3nc(c4c5ccc(Cl)c6c(Cl)ccc(c3=4)c65)C(c3ccc(OCCCCCCCCCC)cc3)=c3c4c(c5[n]3[Ni][n]3c2c2c(c3C(c3ccc(OCCCCCCCCCC)cc3)=c3nc(c6c7ccc(Cl)c8c(Cl)ccc(c3=6)c87)C=5c3ccc(OCCCCCCCCCC)cc3)-c3ccc(Cl)c5c(Cl)ccc-2c35)-c2ccc(Cl)c3c(Cl)ccc-4c23)cc1 [1-7]
 |  | 122,000 | 553 | 553 | 2.3 | ∘ | ∘ | ∘ | 69.1 | 49.8 | 72 | 80 |  |  |  |  |  |  | CCCCCCOc1ccc(C2=c3nc(c4c5cccc6cccc(c3=4)c65)C(c3ccc(OCCCCCC)cc3)=c3c4c(c5[n]3[Cu][n]3c2c2c(c3C(c3ccc(OCCCCCC)cc3)=c3nc(c6c7cccc8cccc(c3=6)c87)C=5c3ccc(OCCCCCC)cc3)-c3cccc5cccc-2c35)-c2cccc3cccc-4c23)cc1 [1-3]
